“Also recorded” adds a separate entry of the source.
Tests used:
BCPAP cells = test: MTT cell viability assay, BCPAP; format: cell-based, Human; conditions: Homo sapiens, BCPAP, 72-hours of exposure, 1% FBS, mean±standard deviation (n=3), read-out: IC50 for reducing viability of BCPAP cells versus DMSO control
From the text: (§1) Human thyroid cancer BCPAP, TPC1, and FTC133 cell lines were the generous gifts of Drs. Rebecca Schweppe and Bryan Haugen (University of Colorado Denver) (Schweppe et al., The Journal of clinical endocrinology and metabolism 83:4331-4341 (2008)) with permission from the following originating laboratories: BCPAP—Dr. Fabien, Centre Hospitalier Lyon-Sud, France (Fabien et al., Cancer 73:2206-2212 (1994)); TPC1—Dr. Sato, Kanazawa University, Japan (Tanaka et al., Virology 161:62-411 (1987)); and FTC133—Dr. Goretzki, University of Leipzig, Germany (Goretzki et al., Recent Results Cancer Res 118:48-63 (1990)). The obtained cell lines were confirmed for identity by DNA fingerprinting. BCPAP was grown in RPMI 1640 medium (Life Technologies Co., Carlsbad, Calif.) while FTC133 and TPC1 were grown in DMEM (Life Technologies Co.), both supplemented with 10% fetal bovine serum (FBS) and NEAA unless as noted for experiments.
(§2) The effect of OSU-03012 and its derivatives on cell viability was assessed by using the 3-(4,5-dimethylthiazol-2-yl)-2,5-diphenyl-2H-tetrazolium bromide (MTT) assay. Three replicates were performed in each individual experiment, and experiments were repeated at least three separate times. Cells were grown in 96-well plates for 24 hours and were exposed to various concentrations of drugs dissolved in DMSO (final concentration 0.1%) in RPMI 1640 or DMEM containing 1% FBS for 72 hours. 10 μL of 0.5 mg/ml MTT was added to each well and cells were incubated in CO2 at 37° C. for 2 hours. Supernatants were removed from the wells, the reduced MTT dye was solubilized in 100 μL of solution C (12 ml of 1N HCl in 300 mL of isopropanol), and absorbance at 570 nm was determined on a microplate reader.
(§3) We assessed the ability of the compounds to reduce cell viability in vitro by MTT assay after 72 hours of continuous exposure. Results are shown in Table 1 and are depicted as the IC50 vs. simultaneously performed DMSO control.
(§4) ^aThe reported IC50 values are concentrations at which BCPAP, FTC133 and TPC1 cell viability by MTT assays 50% of DMSO control after 72-hours of exposure. Data are presented as mean±standard deviation (n=3). PAK and PDK1 Selectivity In Vivo

TPC1 cells = test: MTT cell viability assay, TPC1; format: cell-based, Human; conditions: Homo sapiens, TPC1, 72-hours of exposure, 1% FBS, mean±standard deviation (n=3), read-out: IC50 for reducing viability of TPC1 cells versus DMSO control
From the text: as §1, §2, §3, §4

CaMKI = CaMKI (Homo sapiens, UniProt Q14012); test: Kinase profiling panel: CaMKI; format: biochemical; conditions: 5 μM compound; average of triplicate
Protocol: (§5) To further probe the selectivity of the compounds 4 and 15, they were subjected for kinase profiling service for screening against a panel of other kinases selected based on the kinase tree at 5 μM concentration, at or above the IC50 for the two compounds versus PAK in both in vitro and cell-based assays. […] PAK1 was not available for testing using this system thus it was not possible to compare directly in this assay system.

FGFR2 = FGFR2 (Homo sapiens, UniProt P21802); test: Kinase profiling panel: FGFR2; format: biochemical; conditions: 5 μM compound; average of triplicate
Protocol: as §5

GSK3α = GSK3α (Homo sapiens, UniProt P49840); test: Kinase profiling panel: GSK3α; format: biochemical; conditions: 5 μM compound; average of triplicate
Protocol: as §5

IGF-1R, activated = IGF-1R, activated (Homo sapiens, UniProt P08069); test: Kinase profiling panel: IGF-1R, activated; format: biochemical; conditions: 5 μM compound; average of triplicate
Protocol: as §5

Met = Met (Homo sapiens, UniProt P08581); test: Kinase profiling panel: Met; format: biochemical; conditions: 5 μM compound; average of triplicate
Protocol: as §5

PKA = PKA (Homo sapiens, UniProt P17612); test: Kinase profiling panel: PKA; format: biochemical; conditions: 5 μM compound; average of triplicate
Protocol: as §5

PKCα = PKCα (Homo sapiens, UniProt P17252); test: Kinase profiling panel: PKCα; format: biochemical; conditions: 5 μM compound; average of triplicate
Protocol: as §5

PKCδ = PKCδ (Homo sapiens, UniProt Q05655); test: Kinase profiling panel: PKCδ; format: biochemical; conditions: 5 μM compound; average of triplicate
Protocol: as §5

ROCK-I = ROCK-I (Homo sapiens, UniProt Q13464); test: Kinase profiling panel: ROCK-I; format: biochemical; conditions: 5 μM compound; average of triplicate
Protocol: as §5

Src(T341M) = Src(T341M) (Homo sapiens, UniProt P12931, T341M); test: Kinase profiling panel: Src(T341M); format: biochemical; conditions: 5 μM compound; average of triplicate
Protocol: as §5

[1] = test system: PDK1 phosphorylation of Akt (Thr308); test: Western blot, PDK1 phosphorylation of Akt (Thr308) in thyroid cancer cells; format: cell-based, Human; conditions: BCPAP; for PDK1 phosphorylation of Akt (Thr308) (Western blot): 7.5 μM, 6 h, FTC133 and TPC1 cells (FIG. 3); for Dose-dependency of PDK-mediated Akt phosphorylation: dose-response, 6 hours, FTC133 and TPC1 cells (FIG. 4A)
Protocol: Protein isolation and Western blot were performed as previously described. Ringel et al., Cancer research 61:6105-6111 (2001). 25 μg of total cell lysates were loaded into 4-12% SDS-PAGE, electrophoresed, and transferred to nitrocellulose membranes for immunoblotting. Primary antibodies against Akt (#9272), phospho-Akt (Thr308) (#2965), p44/42 MAPK (Erk1/2) (#9107), phospho-p44/42 MAPK (Erk1/2) (Thr202/Tyr204) (#4377) and GAPDH (#2118) were obtained from Cell Signaling Technology (Danvers, Mass., USA). Antibody against Vimentin (V6630) and phospho-Ser55 Vimentin were from Sigma-Aldrich, Inc. (St. Louis, Mo.) and MBL Co. (Nagoya, Japan), respectively. Antibodies against total and phosphorylated S6 were from Cell Signaling Technology®.
The ability of the compounds with in vitro anti-PAK1 activity was assessed for activity […] in thyroid cancer cells. In addition, because the compounds are based on the structure of a PDK1 inhibitor, PDK1 inhibitory activity was also assessed. Inhibitory activity in cells was estimated using Western blot with primary antibodies directed against kinase-specific phosphorylation sites; serine 56 of vimentin for PAK and threonine 308 of Akt for PDK1. BCPAP, TPC1, and FTC133 thyroid cancer cells were utilized. BCPAP and TPC1 are derived from PTC and have BRAF V600E and RET/PTC1 rearrangements, respectively. FTC133 is derived from a follicular thyroid cancer with an inactivating mutation of PTEN. Similar to the kinase screening assay, cells were treated with the six compounds or OSU-03012 at 7.5 μM concentration or with DMSO vehicle alone. The results were not entirely consistent across the three cell lines presumably related to mutation status or other factors. OSU-03012 inhibited both PDK1 and PAK-mediated phosphorylation of targets as predicted.
The dose-dependency of compounds 4 and 15 was next assessed (FIG. 4). […] Due to the important role that ERK activation plays in thyroid cancer, and its signaling activation by thyroid oncogenes, the effects of the compounds on ERK phosphorylation was also assessed.

Sequence of CaMKI (Q14012 whole entry, species assumed): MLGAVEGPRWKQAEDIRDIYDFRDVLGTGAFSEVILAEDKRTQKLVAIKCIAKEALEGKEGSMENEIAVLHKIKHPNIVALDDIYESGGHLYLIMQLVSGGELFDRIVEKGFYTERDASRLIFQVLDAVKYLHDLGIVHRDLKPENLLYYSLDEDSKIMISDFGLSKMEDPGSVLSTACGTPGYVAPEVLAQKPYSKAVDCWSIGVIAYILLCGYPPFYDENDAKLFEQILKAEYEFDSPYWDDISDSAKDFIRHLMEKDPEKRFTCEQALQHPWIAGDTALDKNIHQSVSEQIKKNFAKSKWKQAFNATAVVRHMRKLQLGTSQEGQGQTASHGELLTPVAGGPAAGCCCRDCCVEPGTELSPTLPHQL
Sequence of GSK3α (P49840 whole entry, species assumed): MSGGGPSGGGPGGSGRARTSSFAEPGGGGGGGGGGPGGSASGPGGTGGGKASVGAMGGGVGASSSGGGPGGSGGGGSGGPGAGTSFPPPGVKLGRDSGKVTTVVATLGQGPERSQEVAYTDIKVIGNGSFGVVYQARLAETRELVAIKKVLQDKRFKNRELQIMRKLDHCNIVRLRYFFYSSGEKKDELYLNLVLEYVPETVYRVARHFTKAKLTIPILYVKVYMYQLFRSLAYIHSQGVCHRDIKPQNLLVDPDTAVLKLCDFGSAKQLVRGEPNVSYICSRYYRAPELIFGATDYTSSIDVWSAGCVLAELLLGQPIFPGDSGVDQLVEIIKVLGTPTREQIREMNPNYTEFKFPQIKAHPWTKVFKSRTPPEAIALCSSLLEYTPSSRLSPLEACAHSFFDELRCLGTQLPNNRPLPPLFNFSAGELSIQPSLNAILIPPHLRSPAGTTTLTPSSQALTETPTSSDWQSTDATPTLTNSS
Sequence of PKCδ (Q05655 whole entry): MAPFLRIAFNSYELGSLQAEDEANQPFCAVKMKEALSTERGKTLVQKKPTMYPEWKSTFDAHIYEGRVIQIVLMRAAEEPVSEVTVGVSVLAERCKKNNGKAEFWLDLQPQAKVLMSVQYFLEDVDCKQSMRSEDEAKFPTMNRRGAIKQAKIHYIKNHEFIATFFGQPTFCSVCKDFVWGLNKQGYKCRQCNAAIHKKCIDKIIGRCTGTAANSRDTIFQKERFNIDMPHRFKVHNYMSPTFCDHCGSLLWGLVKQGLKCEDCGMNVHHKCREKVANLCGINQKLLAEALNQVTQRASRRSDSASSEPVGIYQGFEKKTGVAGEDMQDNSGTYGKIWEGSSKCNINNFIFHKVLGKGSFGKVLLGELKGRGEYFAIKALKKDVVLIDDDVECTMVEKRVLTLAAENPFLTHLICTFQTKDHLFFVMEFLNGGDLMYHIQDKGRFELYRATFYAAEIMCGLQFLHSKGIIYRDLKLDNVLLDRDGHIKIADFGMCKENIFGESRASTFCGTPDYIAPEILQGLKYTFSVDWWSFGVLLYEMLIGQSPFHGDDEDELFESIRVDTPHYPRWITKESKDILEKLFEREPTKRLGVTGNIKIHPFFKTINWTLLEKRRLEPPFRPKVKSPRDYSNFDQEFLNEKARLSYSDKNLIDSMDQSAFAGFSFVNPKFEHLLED
Sequence of IGF-1R, activated (P08069 31-1367): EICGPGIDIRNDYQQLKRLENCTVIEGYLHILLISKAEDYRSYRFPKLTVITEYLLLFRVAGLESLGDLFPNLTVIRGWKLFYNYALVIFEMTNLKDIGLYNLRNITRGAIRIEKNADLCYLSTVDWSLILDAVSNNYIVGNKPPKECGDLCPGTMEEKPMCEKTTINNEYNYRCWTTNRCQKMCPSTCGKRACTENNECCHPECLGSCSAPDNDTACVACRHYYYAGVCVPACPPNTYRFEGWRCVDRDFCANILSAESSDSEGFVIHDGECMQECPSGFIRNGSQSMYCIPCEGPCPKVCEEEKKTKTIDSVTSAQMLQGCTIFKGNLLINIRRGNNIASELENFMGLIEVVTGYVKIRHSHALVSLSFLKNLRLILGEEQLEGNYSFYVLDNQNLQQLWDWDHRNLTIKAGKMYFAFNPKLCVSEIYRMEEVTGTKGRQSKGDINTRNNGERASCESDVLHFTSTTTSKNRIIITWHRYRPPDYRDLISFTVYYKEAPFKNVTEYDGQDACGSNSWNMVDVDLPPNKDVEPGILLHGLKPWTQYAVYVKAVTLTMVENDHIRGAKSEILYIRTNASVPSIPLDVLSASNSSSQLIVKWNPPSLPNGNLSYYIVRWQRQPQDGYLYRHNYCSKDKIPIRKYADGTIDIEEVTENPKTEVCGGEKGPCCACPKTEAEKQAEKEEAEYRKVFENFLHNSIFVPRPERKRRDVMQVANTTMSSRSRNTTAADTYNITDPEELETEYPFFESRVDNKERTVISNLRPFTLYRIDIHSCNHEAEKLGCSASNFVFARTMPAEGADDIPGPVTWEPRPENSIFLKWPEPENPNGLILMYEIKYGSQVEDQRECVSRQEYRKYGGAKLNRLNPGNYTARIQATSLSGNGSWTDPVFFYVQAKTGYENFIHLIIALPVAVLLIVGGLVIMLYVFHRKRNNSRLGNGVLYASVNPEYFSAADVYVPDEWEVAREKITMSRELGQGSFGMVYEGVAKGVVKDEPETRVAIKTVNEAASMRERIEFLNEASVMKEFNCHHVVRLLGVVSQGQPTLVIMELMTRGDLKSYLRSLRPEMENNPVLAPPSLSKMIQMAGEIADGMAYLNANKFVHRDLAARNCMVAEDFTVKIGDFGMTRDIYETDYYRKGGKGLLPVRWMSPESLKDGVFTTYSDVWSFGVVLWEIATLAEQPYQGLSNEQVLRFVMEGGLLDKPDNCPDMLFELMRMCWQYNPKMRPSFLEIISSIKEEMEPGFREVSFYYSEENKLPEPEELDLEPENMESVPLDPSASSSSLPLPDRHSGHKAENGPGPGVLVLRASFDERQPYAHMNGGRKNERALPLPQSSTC
Sequence of FGFR2 (P21802 22-821, species assumed): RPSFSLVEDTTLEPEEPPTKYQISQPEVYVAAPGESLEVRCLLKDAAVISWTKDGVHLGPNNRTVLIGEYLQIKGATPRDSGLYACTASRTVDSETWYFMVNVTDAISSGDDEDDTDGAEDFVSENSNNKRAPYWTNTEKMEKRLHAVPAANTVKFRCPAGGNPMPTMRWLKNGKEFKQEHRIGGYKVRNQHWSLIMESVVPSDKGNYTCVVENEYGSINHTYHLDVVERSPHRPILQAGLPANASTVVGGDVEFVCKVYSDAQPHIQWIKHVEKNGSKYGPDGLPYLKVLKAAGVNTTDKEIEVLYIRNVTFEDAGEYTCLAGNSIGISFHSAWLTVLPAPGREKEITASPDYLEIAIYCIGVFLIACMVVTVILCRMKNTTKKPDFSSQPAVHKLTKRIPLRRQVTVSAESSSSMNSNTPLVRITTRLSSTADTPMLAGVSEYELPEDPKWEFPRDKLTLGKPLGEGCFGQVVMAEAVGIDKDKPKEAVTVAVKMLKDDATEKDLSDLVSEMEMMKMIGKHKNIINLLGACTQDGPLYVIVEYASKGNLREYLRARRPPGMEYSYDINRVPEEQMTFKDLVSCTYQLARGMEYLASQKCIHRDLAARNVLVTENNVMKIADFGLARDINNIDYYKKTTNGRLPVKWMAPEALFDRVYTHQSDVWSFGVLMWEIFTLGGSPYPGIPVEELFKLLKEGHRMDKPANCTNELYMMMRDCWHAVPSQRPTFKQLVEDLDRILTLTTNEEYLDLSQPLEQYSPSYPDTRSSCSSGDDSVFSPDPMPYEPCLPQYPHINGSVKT
Sequence of Met (P08581 25-1390): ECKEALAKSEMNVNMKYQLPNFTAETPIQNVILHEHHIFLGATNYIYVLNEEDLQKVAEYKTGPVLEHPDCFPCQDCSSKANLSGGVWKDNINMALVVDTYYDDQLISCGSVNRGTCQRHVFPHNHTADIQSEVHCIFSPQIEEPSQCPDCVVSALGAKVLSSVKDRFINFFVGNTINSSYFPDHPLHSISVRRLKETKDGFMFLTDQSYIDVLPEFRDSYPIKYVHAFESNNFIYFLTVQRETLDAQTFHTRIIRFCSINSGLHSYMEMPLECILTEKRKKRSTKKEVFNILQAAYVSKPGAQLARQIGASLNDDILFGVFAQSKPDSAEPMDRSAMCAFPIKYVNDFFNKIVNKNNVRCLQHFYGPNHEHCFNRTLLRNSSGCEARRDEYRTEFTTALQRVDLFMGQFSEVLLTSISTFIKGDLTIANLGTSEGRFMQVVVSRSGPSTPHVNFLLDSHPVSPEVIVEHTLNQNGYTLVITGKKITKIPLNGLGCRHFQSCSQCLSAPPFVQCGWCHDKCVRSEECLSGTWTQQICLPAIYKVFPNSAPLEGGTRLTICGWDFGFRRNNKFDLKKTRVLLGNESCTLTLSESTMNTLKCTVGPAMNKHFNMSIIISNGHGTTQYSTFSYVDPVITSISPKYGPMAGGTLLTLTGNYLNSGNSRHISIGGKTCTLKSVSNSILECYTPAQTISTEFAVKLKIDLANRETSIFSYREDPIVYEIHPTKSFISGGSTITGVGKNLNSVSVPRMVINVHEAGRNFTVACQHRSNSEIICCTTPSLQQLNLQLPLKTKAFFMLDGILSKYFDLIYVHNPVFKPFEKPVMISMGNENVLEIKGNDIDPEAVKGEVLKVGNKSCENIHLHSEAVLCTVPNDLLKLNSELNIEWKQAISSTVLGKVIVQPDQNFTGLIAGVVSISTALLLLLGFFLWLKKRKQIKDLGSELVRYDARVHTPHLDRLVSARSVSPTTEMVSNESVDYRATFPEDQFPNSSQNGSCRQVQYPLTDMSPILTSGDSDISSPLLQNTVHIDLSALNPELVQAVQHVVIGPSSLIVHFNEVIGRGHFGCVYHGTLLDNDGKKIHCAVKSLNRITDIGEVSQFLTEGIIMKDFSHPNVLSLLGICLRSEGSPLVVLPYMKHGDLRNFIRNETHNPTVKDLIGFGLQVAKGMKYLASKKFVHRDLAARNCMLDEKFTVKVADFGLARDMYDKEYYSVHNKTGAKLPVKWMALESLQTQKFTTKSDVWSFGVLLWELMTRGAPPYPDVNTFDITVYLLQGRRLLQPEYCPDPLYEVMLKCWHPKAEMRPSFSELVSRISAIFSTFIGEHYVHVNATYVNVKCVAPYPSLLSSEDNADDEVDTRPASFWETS

SMILES	IC50 (BCPAP cells) [nM]	IC50 (TPC1 cells) [nM]	% activity vs. DMSO, CaMKI (CaMKI) [%]	% activity vs. DMSO, FGFR2 (FGFR2) [%]	% activity vs. DMSO, GSK3α (GSK3α) [%]	% activity vs. DMSO, IGF-1R, activated (IGF-1R, activated) [%]	% activity vs. DMSO, Met (Met) [%]	% activity vs. DMSO, PKA (PKA) [%]	% activity vs. DMSO, PKCα (PKCα) [%]	% activity vs. DMSO, PKCδ (PKCδ) [%]	% activity vs. DMSO, ROCK-I (ROCK-I) [%]	% activity vs. DMSO, Src(T341M) (Src(T341M)) [%]	PDK1 phosphorylation of Akt (Thr308) (Western blot) [1]	Dose-dependency of PDK-mediated Akt phosphorylation [1]
NCCC(=O)Nc1ccc(-n2nc(C(F)(F)F)cc2-c2ccc3ccc4ccccc4c3c2)cc1 [Compound 4, 3-amino-N-(4-(5-(phenanthren-3-yl)-3-(trifluoromethyl)-1H-pyrazol-1-yl)phenyl)-propanamide]	2070 ± 60	1680 ± 320	65	92	133	97	89	110	92	85	93	105	without altering PDK1 activity; also recorded: did not block PDK1-mediated Akt phosphorylation	not reduced
CC(C)NC(=O)c1cc(-c2ccc3ccc4ccccc4c3c2)n(-c2ccc(NC(=O)CN)cc2)n1 [Compound 15, 1-(4-(2-Aminoacetamido)phenyl)-N-isopropyl-5-(phenanthren-3-yl)-1H-pyrazole-3-carboxamide]	1490 ± 680	2660 ± 1050	68	99	118	83	77	119	92	110	95	94	without altering PDK1 activity; also recorded: did not block PDK1-mediated Akt phosphorylation	not reduced

Reference: US9156790B2, “Anticancer P21-activated kinase inhibitors” (Ohio State Innovation Foundation, priority 2013, dated 2015)
